From patent publication US6525028B1, “Immunoeffector compounds” (Corixa Corporation, priority 2002, dated 2003)
Entries after “also recorded” stand apart in the source; their conditions may differ. Counter-ions that a name gives are not always drawn.

Experiments:
[1] = Rabbit pyrogen test; type: in vivo, rabbits; conditions: for Pyrogenicity (total rise of 3 rabbits): total rise of 3 rabbits following i.v. 10 μg/Kg dose, solubilized in 10% EtOH/WFI, diluted with 5% dextrose in water
Text: In an effort to obtain an immunostimulant that has low pyrogenicity, synthetic molecules have been prepared which share structural similarities with the MPLO immunostimulant. These novel molecules which are collectively called aminoalkyl glucosaminide phosphates (AGPs), consist of an acylated […] moiety linked to an acylated aminoalkyl group (Johnson et al. (1999) Bioorg. Med. Chem. Lett. 9: 2273-2278; PCTAWO98/50399 and references therein). […] The substitution of different chemical moieties within the aminoalkyl structures was designed into the AGPs in anticipation of optimizing stability and solubility properties. Thus the AGPs can be broadly separated into several families based on the structure of their aminoalkyl groups. After initial biological evaluation, it became apparent that the aminoalkyl motifs could dramatically affect the pyrogenic properties of the AGPs (see U.S. patent application Ser. No. 09/074,720 filed May 7, 1998, and U.S. Pat. Nos. 6,113,918 and 6,303,347). As part of the initial screening process of the synthetic adjuvant compounds, rabbit pyrogenicity data was determined. […] Here we report on studies of the adjuvant properties of a class of AGPs which induce minimal activity in both the rabbit pyrogen test and the ex vivo cytokine assay.

[2] = tested on: HBsAg; experiment: Adjuvant activity towards HBsAg, IgG1 and IgG2a isotype titers by ELISA (Example 6); type: in vivo, BALB/c mice; conditions: for Serum Titers IgG1 / Serum Titers IgG2a: s.c. 2.0 μg HBsAg + 25 μg adjuvant day 0 and 21, pooled sera 21 days post secondary; for titers to HBsAg, in words: versus control group receiving antigen in PBS / positive control MPL
Experimental: Groups of BALB/c mice injected subcutaneous with 2.0 μg HBsAg(Rhein Americana, & Rhein Biotech) ±25 μg adjuvant (MPLO immunostinulant orCompound II) on day 0 and day 21. IgG1 and IgG2a isotype titers to HBsAg were determined by ELISA from pooled sera collected 21 days post secondary (Table 3). The nonimmune controls were not vaccinated.

[3] = tested on: TNF-α; experiment: Ex vivo cytokine induction, TNF-α by sandwich ELISA (Example 8); type: cell-based; conditions: human blood cells, 4 hr at 37° C.
Experimental: (§1) The effects of Compound II on the elaboration of TNF-α and IL-1β was measured under ex vivo conditions on human peripheral blood mononuclear cells. MPL® immunostimulant and Compound II were formulated in aqueous solutions of 0.2% TEoA/WFI.
(§2) Human whole blood was used to evaluate the ability of glycolipids (AGPS) to induce proinflammatory cytokines. Human whole blood is collected into heparinized tubes and 0.45 ml of whole blood is admixed with 0.05 ml phosphate buffered saline (PBS, pH 7.4) containing the glycolipid (i.e., the test compounds). The tubes are incubated for 4 hr at 37° C. on a shaker apparatus. The samples are then diluted with 1.5 ml sterile PBS and centrifuged. The supernatants are removed and analyzed for […] TNF-α and IL-1β by sandwich ELISA using R&D Systems' Quantikine immunoassay kits for human TNF-α and IL-1β.

[4] = tested on: HBsAg (Hepatitis B Surface Antigen); experiment: Adjuvant activity towards HBsAg, serum titers by ELISA (Example 4); type: in vivo, BALB/c mice; conditions: for Serum Titers IgG / Serum Titers IgG1 / Serum Titers IgG2a / Serum Titers IgG2b: s.c. 2 μg HBsAg + 20 μg adjuvant day 0 and 21, pooled sera (5 mice/group) 21 days post-secondary
Experimental: Vaccines were prepared by mixing the adjuvant-containing TEoA (triethanolamine) formulations with recombinant HBsAg. Titers to HBsAg were determined by ELISA from pooled sera (5 mice/group) collected 21 days post-secondary vaccination (Table 1). The nonimmune controls were not vaccinated.

[5] = tested on: hemagglutinin protein in FluZone influenza vaccine; experiment: Adjuvant activity towards hemagglutinin protein in FluZone influenza vaccine, FluZone ELISA (Example 5); conditions: for Serum Titers IgG / Serum Titers IgG1 / Serum Titers IgG2a / Serum Titers IgG2b: s.c. 0.2 μg hemagglutinin in FluZone + 20 μg adjuvant day 0 and 14, pooled sera of 5 mice 14 days post secondary
Experimental: Groups of BALB/c mice (Jackson Laboratories Bar Harbor, Me.) 6-8 weeks old were injected subcutaneous with 0.2 μg hemagglutinin protein in FluZone influenza vaccine (Connaught Laboratories, Swiftwater, Pa.) ±20 μg adjuvant (MPL® immunostimulant orCompound II) on day 0 and day 14. […] The nonimmune controls were not vaccinated. The initial dilutions used on sera from test groups was 1:1600.

[6] = tested on: IL-1β; experiment: Ex vivo cytokine induction, IL-1β by sandwich ELISA (Example 8); type: cell-based, human; conditions: for relative induction of IL-1β: level induced with MPL immunostimulant assigned a value of 1
Experimental: as §1, §2

[7] = tested on: Inducible Nitric Oxide Synthase (iNOS); experiment: iNOS induction in IFN-γ primed J774 murine macrophages, Greiss reagent nitrite release (Example 9); type: cell-based; conditions: IFN-γ primed J774 cells
Experimental: This example illustrates the effects of various glycolipids on iNOS induction in J774 murine macrophages. The murine macrophage cell line J774 can be primed by IFN-γ in vitro and is very responsive to subsequent LPS stimulation of iNOS upregulation as measured by a standard Greiss reagent ELISA assay procedure. The assay utilizes J774 cells seeded at 1×10^6/mL with 30 mL/flask and with IFN-γ added at 100 units/mL for 16-24 hrs. Cells are then harvested and washed and resuspended at 2×10^5/well in a 96-well plate and allowed to adhere. Glycolipid compounds are serially diluted into the wells for a test group and the resulting cultures are incubated for another 36-40 hrs before culture supernatants are collected from Greiss reagent analysis of nitrite release (Green et al. (1982) Anal. Biochem. 126: 131-138). Nitrite content closely parallels iNOS function.
Potency was determined as the concentration (ng/mL) of glycolipid in culture capable of inducing one-half maximal induction of nitrite (ED50). The lower the ED50 number, the greater the potency for iNOS induction. The ED50 was cacluated according to methods set out in Johnson et al., (1999) J Med Chem. 42: 4640-4649.

[8] = cited from earlier work
[9] = versus control sera receiving antigen alone

| Compound | Pyrogenicity (total rise of 3 rabbits) [1] | Serum Titers IgG1 [2] | Serum Titers IgG2a [2] | titers to HBsAg, in words [2] | Serum Titers IgG [4] | Serum Titers IgG1 [4] | Serum Titers IgG2a [4] | Serum Titers IgG2b [4] | Serum Titers IgG [5] | Serum Titers IgG1 [5] | Serum Titers IgG2a [5] | Serum Titers IgG2b [5] | relative induction of IL-1β [6] | also measured |
| --- | --- | --- | --- | --- | --- | --- | --- | --- | --- | --- | --- | --- | --- | --- |
| CCCCCCCCCCCCCC(=O)O[C@H](CCCCCCCCCCC)CC(=O)N[C@H]1[C@H](OC[C@@H]2CCCN2C(=O)C[C@@H](CCCCCCCCCCC)OC(=O)CCCCCCCCCCCCC)O[C@H](CO)[C@@H](OP(=O)(O)O)[C@@H]1OC(=O)C[C@@H](CCCCCCCCCCC)OC(=O)CCCCCCCCCCCCC [Compound II, N-[(R)-3-tetradecanoyloxytetradecanoyl]-(S)-2-pyrrolidinylmethyl 2-deoxy-4-O-phosphono-2-[(R)-3-tetradecanoyloxytetradecanoylamino]-3-O-[(R)-3-tetradecanoyloxytetradecanoyl]-β-D-glucopyranoside triethylammonium salt] | 0.3 °C | 32,000 | 2,048,000 | increased titers compared to the control group | 409,600 | 204,800 | 409,600 | 51,200 | 51,200 | 102,400 | 25,600 | 6400 | ≤ 0.05 | fever response in the rabbit pyrogen test, in words ([1]; i.v. 10 μg/kg): apparent lack of fever; induction of TNF-α, in words ([3]; Compound II at 1, 5 and 10 μg/ml): did not produce levels of TNF-α that could be detected; also recorded: without inducing detectable levels; anti-HBsAg responses (serum titers), in words [4, 9]: significantly higher than control sera receiving antigen alone; titers to FluZone, in words [5, 9]: significantly higher than control sera receiving antigen alone; induction of IL-1β, in words ([6]; ex vivo, human blood cells, 4 hr at 37° C., Compound II at 1, 5 and 10 μg/ml): did not produce detectable levels of IL-1β; also recorded: without inducing detectable levels |
| Monophosphoryl lipid A [MPL® immunostimulant, reference compound] | 2-3 °C | 128,000 | 1,024,000 |  | 409,600 | 204,800 | 204,800 | 51,200 | 102,400 | 102,400 | 25,600 | 12,800 | 1 | iNOS induction / nitrite elaboration, in words [7]: high levels of nitrite elaboration; concentration effective at inducing TNF-α [3]: 100 to 10,000 ng/mL; dose that can be safely administered to humans ([8]; humans): at least 20 μg/kg; dose levels at which increases in temperature, flu-like symptoms, increasing heart rate and modest decreases in blood pressure can occur ([8]; some patients): ≥ 10 µg/kg |
| N-[(R)-3-tetradecanoyloxytetradecanoyl]-(S)-2-pyrrolidinylmethyl 2-deoxy-4-O-phosphono-2-[(R)-3-tetradecanoyloxytetradecanoylamino]-3-O-[(R)-3-tetradecanoyloxytetradecanoyl]-β-D-glucopyranoside triethylammonium salt [Compound II] |  |  |  | titers equivalent to the positive controls |  |  |  |  |  |  |  |  |  |  |
